Columns and labels:
Transthyretin [1] = molecular target: Transthyretin (Homo sapiens, UniProt P02766); assay: Binding affinity to wild type TTR (unknown origin) expressed in Escherichia coli BL21/DE3 by Circular dichroism spectroscopy
Transthyretin [2] = molecular target: Transthyretin (Homo sapiens, UniProt P02766, V50M); assay: Stabilization of TTR V30M mutant (unknown origin) assessed as inhibition of protein-mediated amyloid fibril formation

Structure (SMILES) | Kd (Transthyretin [1]) [µM] | Kd (Transthyretin [2]) [µM]
O=C(O)Cc1ccccc1Nc1c(Cl)cccc1Cl [DICLOFENAC] | 0.06 | –
O=C(O)c1ccccc1Nc1cccc(C(F)(F)F)c1 [FLUFENAMIC ACID] | 0.03 | –
O=C(CCc1ccc(O)cc1)c1c(O)cc(O)cc1O [PHLORETIN] | – | 8.1
COc1cc(O)c(CC=C(C)C)c(O)c1C(=O)/C=C/c1ccc(O)cc1 [XANTHOHUMOL] | – | 12
